Source: ChEMBL document CHEMBL5233269, “Anticancer potential of spirocompounds in medicinal chemistry: A pentennial expedition” (Eur J Med Chem, 2021)

Experiments:
A549 [1] = test: Cytotoxicity against human A549 cells; assay type: functional, cell-based
HCT-116 [2] = test: Cytotoxicity against human HCT-116 cells; assay type: functional, cell-based
SW-620 = test: Cytotoxicity against human SW620 cells; assay type: functional, cell-based
PC-3 [3] = test: Cytotoxicity against human PC-3 cells; assay type: functional, cell-based
HepG2 [4] = test: Anticancer activity against human HepG2 cells assessed as inhibition of cell viability; assay type: functional, cell-based
HCT-116 [5] = test: Anticancer activity against human HCT-116 cells assessed as inhibition of cell growth; assay type: functional, cell-based
PC-3 [6] = test: Anticancer activity against human PC-3 cells assessed as inhibition of cell growth; assay type: functional, cell-based
MDA-MB-435 = test: Growth inhibition of human MDA-MB-435 cells by SRB assay; assay type: functional
MCF7 [7] = test: Growth inhibition of human MCF7 cells by SRB assay; assay type: functional
A549 [8] = test: Cytotoxicity against human A549 cells assessed as inhibition of tumor cell proliferation incubated for 72 hrs by MTT assay; assay type: functional, cell-based; conditions: A549, 72 h
MCF7 [9] = test: Anticancer activity against human MCF7 cells; assay type: functional, cell-based
DU-145 = test: Anticancer activity against human DU-145 cells; assay type: functional, cell-based
HeLa = test: Anticancer activity against human HeLa cells; assay type: functional, cell-based
A549 [10] = test: Anticancer activity against human A549 cells assessed as inhibition of cell proliferation; assay type: functional, cell-based
K562 = test: Anticancer activity against human K562 cells; assay type: functional, cell-based
MCF7 [11] = test: Anticancer activity against human MCF7 cells assessed as inhibition of cell viability; assay type: functional, cell-based
HepG2 [12] = test: Anticancer activity against human HepG2 cells; assay type: functional, cell-based
HepG2 [13] = test: Cytotoxicity against human HepG2 cells incubated for 48 hrs by SRB assay relative to control; assay type: functional; set-up: concentration or dose not given beside the values
[14] = Cytotoxicity against human HBF4 cells incubated for 48 hrs by SRB assay relative to control; assay type: toxicity, cell-based; set-up: concentration or dose not given beside the values; conditions: hbf4, 48 h
MCF7 [15] = test: Cytotoxicity against human MCF7 cells incubated for 48 hrs by SRB assay relative to control; assay type: functional; set-up: concentration or dose not given beside the values
A549 [16] = test: Anticancer activity against human A549 cells assessed as reduction in cell viability incubated for 48 hrs by MTT assay; assay type: functional, cell-based; conditions: A549, 48 h
MCF7 [17] = test: Anticancer activity against human MCF7 cells assessed as reduction in cell viability incubated for 48 hrs by MTT assay; assay type: functional, cell-based; conditions: MCF7, 48 h
B16-F10 = test: Anticancer activity against mouse B16-F10 cells incubated for 48 hrs by MTT assay; assay type: functional, cell-based; conditions: B16-F10, 48 h
[18] = biological target: T1, Amine oxidase [flavin-containing] A (Rattus norvegicus, UniProt P21396); test: Inhibition of rat brain MAO-A relative to control; assay type: tissue-based
T1 sequence (P21396 whole entry): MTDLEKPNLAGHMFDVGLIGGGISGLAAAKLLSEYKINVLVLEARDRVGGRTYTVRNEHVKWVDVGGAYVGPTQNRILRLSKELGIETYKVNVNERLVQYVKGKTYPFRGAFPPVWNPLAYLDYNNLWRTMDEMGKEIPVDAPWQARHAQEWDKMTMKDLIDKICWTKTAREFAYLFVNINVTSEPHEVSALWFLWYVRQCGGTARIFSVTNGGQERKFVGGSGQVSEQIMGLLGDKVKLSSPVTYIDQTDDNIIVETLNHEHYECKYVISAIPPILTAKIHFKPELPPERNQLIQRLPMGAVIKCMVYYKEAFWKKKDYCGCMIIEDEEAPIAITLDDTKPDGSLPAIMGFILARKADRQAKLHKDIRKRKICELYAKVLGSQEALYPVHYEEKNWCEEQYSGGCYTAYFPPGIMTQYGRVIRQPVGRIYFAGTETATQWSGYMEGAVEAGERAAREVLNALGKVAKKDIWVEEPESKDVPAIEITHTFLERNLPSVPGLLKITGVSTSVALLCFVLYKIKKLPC

For CN1CCN(C(=O)C2CN(C(=O)N3CCCCC3)C3(C(=O)Nc4cc(Cl)ccc43)C2c2ccccc2O)CC1 (configuration not stated), the IC50 (A549 [1]) was 1.17 µM, the IC50 (HCT-116 [2]) was > 50 µM and the IC50 (SW-620) was 31.6 µM. The IC50 (PC-3 [3]) was > 50 µM.
CC1CCC2(CC1)SC/C(=N\c1nnc(SC3OC[C@@H](O)[C@H](O)[C@H]3O)s1)N2c1ccc(F)cc1 (some centres not stated) gave an IC50 (HepG2 [4]) of 0.599 µM, an IC50 (HCT-116 [5]) of 0.107 µM and an IC50 (PC-3 [6]) of 9.49 µM.
CC(=O)OC[C@H]1OC(Sc2nnc(/N=C3\CSC4(CCCCC4)N3c3ccc(F)cc3)s2)[C@H](OC(C)=O)[C@@H](OC(C)=O)[C@@H]1OC(C)=O (some centres not stated) showed an IC50 (HepG2 [4]) of 0.176 µM, an IC50 (HCT-116 [5]) of 0.0922 µM and an IC50 (PC-3 [6]) of 0.121 µM.
CC1CCC2(CC1)SC/C(=N\c1nnc(SC3O[C@H](CO)[C@@H](O)[C@H](O)[C@H]3O)s1)N2c1ccc(F)cc1 (some centres not stated) gave an IC50 (HepG2 [4]) of 0.334 µM, an IC50 (HCT-116 [5]) of 0.106 µM and an IC50 (PC-3 [6]) of 0.112 µM.
For N#CC1=C(N)OC2=C(C(=O)c3ccccc32)C12C(=O)Nc1ccc(Cl)cc12 (configuration not stated), the GI50 (MDA-MB-435) was 2.1 µM and the GI50 (MCF7 [7]) was > 100 µM.
In the case of CC(=O)OC[C@H]1OC(Sc2nc(-c3ccc(C)o3)c3c(n2)N(c2ccc(F)cc2)C2(CCCCC2)S3)[C@H](OC(C)=O)[C@@H](OC(C)=O)[C@@H]1OC(C)=O (some centres not stated), the IC50 (HepG2 [4]) is reported as 0.135 µM, the IC50 (HCT-116 [5]) is reported as 0.12 µM and the IC50 (PC-3 [6]) is reported as 0.224 µM.
For C[C@]12CC[C@H](O)CC1=CCC1C2CC[C@@]2(C)C1CC[C@@H]2C1=CC2(C(=O)Nc3ccc(Cl)cc32)C(C#N)=C(N)N1 (some centres not stated), the IC50 (A549 [8]) was 11.5 µM.
O=C1OCC2Nc3ccc(Cl)cc3NC3(C(=O)Nc4ccccc43)C12 (configuration not stated) gave an IC50 (MCF7 [9]) of 9.51 µM, an IC50 (DU-145) of 1.7 µM and an IC50 (HeLa) of 5.37 µM. The IC50 (A549 [10]) was 2.95 µM.
In the case of CN1C(=O)[C@@]2(c3cccc(Cl)c31)[C@H](O)c1ccccc1[C@@H]2[C@]1(CN2CCCCC2)C(=O)N(C)c2c(Cl)cccc21, the IC50 (K562) is reported as 32.8 µM.
Compound CCN(CC)C[C@@]1([C@H]2c3ccccc3[C@@H](O)[C@]23C(=O)N(C)c2ccc(C)cc23)C(=O)N(C)c2ccc(C)cc21 has an IC50 (K562) of 27.8 µM.
Cc1ccc2c(c1)C1(C(=O)N2)C(C#N)=C(N)NC2=C1CCCC2 (configuration not stated) gave an IC50 (MCF7 [11]) of 28 µM and an IC50 (HepG2 [12]) of 36 µM.
Work on CC1(C)CC(=O)C2=C(C1)N(c1ccc(Cl)cc1)C(N)=C(C#N)C21C(=O)Nc2ccccc21 (configuration not stated) yielded an Activity (HepG2 [13]) of 38%, an Activity [14] of 30% and an Activity (MCF7 [15]) of 79%.
Compound N#CC1=C(N)NC2=C(CCCCCC2)C12C(=O)Nc1ccccc12 (configuration not stated) has an IC50 (MCF7 [11]) of 32 µM and an IC50 (HepG2 [12]) of 39 µM.
In the case of CCN(CC)C[C@@]1([C@H]2c3ccccc3[C@@H](O)[C@]23C(=O)N(C)c2c(C)cccc23)C(=O)N(C)c2c(C)cccc21, the IC50 (K562) is reported as 26.7 µM.
For O=C(C1CN(C(=O)N2CCCCC2)C2(C(=O)Nc3ccccc32)C1c1ccc(Cl)cc1O)N1CCOCC1 (configuration not stated), the IC50 (A549 [1]) was 36.8 µM, the IC50 (HCT-116 [2]) was > 50 µM and the IC50 (SW-620) was < 0.08 µM. The IC50 (PC-3 [3]) was > 50 µM.
Compound COC1=CC2(C=C(C(=O)Oc3cccc(F)c3F)c3cc(OC)cc(OC)c32)C(OC)=CC1=O (configuration not stated) has an IC50 (A549 [16]) of 9.58 µM, an IC50 (MCF7 [17]) of 13.1 µM and an IC50 (B16-F10) of 10.9 µM.
CC1(C)CC(=O)C2=C(C1)N(c1ccccc1)C(N)=C(C#N)C21C(=O)Nc2ccccc21 (configuration not stated) showed an Activity (HepG2 [13]) of 39%, an Activity [14] of 23% and an Activity (MCF7 [15]) of 76%.
With COC1=CC2(C=C(C(=O)NNc3ccc(F)c(F)c3)c3cc(OC)cc(OC)c32)C(OC)=CC1=O (configuration not stated) the IC50 (A549 [16]) was 20.4 µM, the IC50 (MCF7 [17]) was 15.6 µM and the IC50 (B16-F10) was 20.9 µM.
CCOC(=O)C1=C2N=C(N)c3ccccc3N2C2=C(C(=O)CC(C)(C)C2)C12C(=O)Nc1ccccc12 (configuration not stated) showed an Activity (HepG2 [13]) of 29%, an Activity [14] of 30% and an Activity (MCF7 [15]) of 76%.
In the case of CCn1c(SCC(=O)Nc2ccccc2Cl)nc2c(c1=O)C1(CCCCC1)Cc1ccccc1-2, the “inhibition (INH)” value [18] is reported as 66%.
Work on O=C1N(Cc2ccccc2)c2ccccc2[C@@]12[C@H](O)c1ccccc1[C@@H]2[C@]1(CN2CCCCC2)C(=O)N(Cc2ccccc2)c2ccccc21 yielded an IC50 (K562) of 9.7 µM.
Compound Cc1ccc2c(c1)C1(Nc3ccccc3NC3COC(=O)C31)C(=O)N2 (configuration not stated) has an IC50 (MCF7 [9]) of 2.14 µM, an IC50 (DU-145) of 1.35 µM and an IC50 (HeLa) of 9.58 µM. For the same compound, the IC50 (A549 [10]) was 1.55 µM.
CCN1C(=O)[C@@]2(c3cccc(Cl)c31)[C@H](O)c1ccccc1[C@@H]2[C@]1(CN2CCCC2)C(=O)N(CC)c2c(Cl)cccc21 gave an IC50 (K562) of 8.8 µM.
In the case of CN1C(=O)[C@@]2(c3cccc(Cl)c31)[C@H](O)c1ccccc1[C@@H]2[C@]1(CN2CCSCC2)C(=O)N(C)c2c(Cl)cccc21, the IC50 (K562) is reported as 21.9 µM.
